± gives the expanded uncertainty stated by the source.
Legend:
[1] = xn = mol fraction of the nth substance listed; conditions: 100 kPa, Liquid, x1 = 1; for viscosity: Concentric cylinders viscometry; for mass density: Vibrating tube method
[2] = 100 kPa, Liquid; for viscosity: Concentric cylinders viscometry; for mass density: Vibrating tube method

| Compound | viscosity ([2]; 293.15 K) | mass density ([2]; 293.15 K) | viscosity ([2]; 303.15 K) | mass density ([2]; 303.15 K) | viscosity ([2]; 313.15 K) | mass density ([2]; 313.15 K) | viscosity ([2]; 323.15 K) | mass density ([2]; 323.15 K) | viscosity ([2]; 333.15 K) | mass density ([2]; 333.15 K) | viscosity ([2]; 343.15 K) | mass density ([2]; 343.15 K) | viscosity ([2]; 353.15 K) | mass density ([2]; 353.15 K) | viscosity ([2]; 363.15 K) | mass density ([2]; 363.15 K) | viscosity ([2]; 373.15 K) | mass density ([2]; 373.15 K) | also measured |
| --- | --- | --- | --- | --- | --- | --- | --- | --- | --- | --- | --- | --- | --- | --- | --- | --- | --- | --- | --- |
| O [water] + CCOP(=O)([O-])OCC.CCn1cc[n+](C)c1 | – | – | – | – | – | – | – | – | – | – | – | – | – | – | – | – | – | – | viscosity ([1]; 293.15 K): 1 ± 0.04 mPa·s; mass density ([1]; 293.15 K): 1000.1 ± 0.5 kg/m3; viscosity ([1]; 303.15 K): 0.805 ± 0.034 mPa·s; mass density ([1]; 303.15 K): 998 ± 0.5 kg/m3; viscosity ([1]; 313.15 K): 0.651 ± 0.027 mPa·s; mass density ([1]; 313.15 K): 994.3 ± 0.5 kg/m3; viscosity ([1]; 323.15 K): 0.544 ± 0.023 mPa·s; viscosity ([1]; 333.15 K): 0.472 ± 0.02 mPa·s; mass density ([1]; 333.15 K): 985.2 ± 0.6 kg/m3; viscosity ([1]; 343.15 K): 0.417 ± 0.018 mPa·s; mass density ([1]; 343.15 K): 979.6 ± 0.6 kg/m3; viscosity ([1]; 353.15 K): 0.342 ± 0.015 mPa·s; mass density ([1]; 353.15 K): 973.3 ± 0.6 kg/m3 |
| C[S+](C)[O-] [dimethyl sulfoxide] | 2.31 ± 0.09 mPa·s | 1101.2 ± 0.7 kg/m3 | 1.89 ± 0.08 mPa·s | 1091.2 ± 0.7 kg/m3 | 1.57 ± 0.06 mPa·s | 1081.1 ± 0.7 kg/m3 | 1.33 ± 0.05 mPa·s | 1071.1 ± 0.7 kg/m3 | 1.15 ± 0.05 mPa·s | 1061.2 ± 0.7 kg/m3 | 1.01 ± 0.04 mPa·s | 1051.3 ± 0.7 kg/m3 | 0.893 ± 0.037 mPa·s | 1041.1 ± 0.7 kg/m3 | 0.799 ± 0.033 mPa·s | 1031.3 ± 0.7 kg/m3 | 0.721 ± 0.03 mPa·s | 1021.4 ± 0.7 kg/m3 | – |
| CCOP(=O)([O-])OCC.CCn1cc[n+](C)c1 [1-ethyl-3-methylimidazolium diethyl phosphate] | 540 ± 30 mPa·s | 1151.2 ± 1.2 kg/m3 | 274 ± 15 mPa·s | 1144.2 ± 1.2 kg/m3 | 154 ± 8 mPa·s | 1137.4 ± 1.2 kg/m3 | 94 ± 4.4 mPa·s | 1130.7 ± 1.2 kg/m3 | 61.2 ± 2.8 mPa·s | 1124.1 ± 1.2 kg/m3 | 42.1 ± 1.9 mPa·s | 1117.5 ± 1.2 kg/m3 | 30.2 ± 1.3 mPa·s | 1111 ± 1.1 kg/m3 | 22.5 ± 1 mPa·s | 1104.5 ± 1.1 kg/m3 | 17.3 ± 0.7 mPa·s | 1098.2 ± 1.1 kg/m3 | – |
| O [water] | 1 ± 0.04 mPa·s | 1000.1 ± 0.5 kg/m3 | 0.805 ± 0.034 mPa·s | 998 ± 0.5 kg/m3 | 0.651 ± 0.027 mPa·s | 994.3 ± 0.5 kg/m3 | 0.544 ± 0.023 mPa·s | – | 0.472 ± 0.02 mPa·s | 985.2 ± 0.6 kg/m3 | 0.417 ± 0.018 mPa·s | 979.6 ± 0.6 kg/m3 | 0.342 ± 0.015 mPa·s | 973.3 ± 0.6 kg/m3 | – | – | – | – | – |
